What is called inhibition is the share of the control response that was lost under treatment. As a reminder, the LD50 is the dose at which mortality reaches 50%.

The results in this text go back to US4156011A, “Sulphur- and oxygen-containing diaryl compounds” (priority 1974, dated 1979).

Like-named read-outs stand apart in the source and are kept apart here.

Data set [1] deals with platelets (aggregation induced by collagen). Put plainly: Anti-aggregation action, platelet aggregation induced by collagen. The format is in vivo, male Wistar rats. The conditions noted are these: 100 mg/kg, 4 days; unit not given. As to the method: (a) by collagen: the inhibition of aggregation (which corresponds to the % transmission), the latency period and the speed; and
(§1) In Table IV which follows have been shown the results relating to the anti-aggregation action of some products on the blood of male Wistar rats, the aggregating agents used being collagen/acetic acid diluted 1/10, and ADP at 1 μM.

Data set [2] relates to platelets (aggregation induced by ADP). Put plainly: Anti-aggregation action, platelet aggregation induced by ADP. The format is in vivo, male Wistar rats. The conditions noted are these: Rattus norvegicus, Platelet, 96 h; oral 100 mg/kg, 4 days; read-out: inhibition of transmission (ADP test). As to the method:
(b) by ADP: the inhibition of aggregation (that is to say the % transmission).
as §1

Data set [3] in a line: Reduction of lipids and cholesterol in rats treated orally. The format is in vivo. The following applies: Rattus norvegicus. As to the method: Some of the other results of the pharmacological tests which were carried out on rats are summarised below.
Rats given a normal diet are treated orally at a daily dose of 50 mg/kg for 3 and 5 days. A reduction of about 20% in the concentration of cholesterol and lipids in the plasma is observed.

Assay in data set [4]: as above
The format is in vivo. The following applies: for inhibition in vivo at 10 mg/kg / inhibition in vivo at 20 mg/kg: Rattus norvegicus, 72 h, 3 days; for inhibition in vivo at 10 mg/kg: oral 10 mg/kg; for inhibition in vivo at 20 mg/kg: oral 20 mg/kg.

For data set [5], the system named is blood platelet aggregation. Put plainly: Anti-aggregation action in rats (graded / in words). The format is in vivo. Also on record: key to Anti-aggregation action: -: zero activity; +: significant activity; ++: intense activity; +++: very intense activity.
Data set [6] can be described thus: Hypo-lipidaemic and hypo-cholesterolaemic action of other products (Table V). The format is in vivo, rats. The conditions noted are these: for change in vivo at 50 mg/kg: Rattus norvegicus, 72 h, oral 50 mg/kg for 3 days. An excerpt: The results of the anti-aggregation test and of the hypo-[…] action and hypo-cholesterolaemic action tests of other products of the invention have been […] Table V which follows, the code used being the following (for each dose shown): […]

A short description of another data set: in vivo. The conditions noted are these: mouse, oral, female mice. As to the method: (§2) In female mice, the LD-50 on oral administration is 2,050 mg/kg. In male rats, the LD-0, on oral administration, is greater than 600 mg/kg.
The format of data set [7] is in vivo. The conditions noted are these: oral, male rats. As to the method: as §2
The next data set concerns stomach and duodenum. Put plainly: Gastric tolerance in fasting rats. The format is in vivo. From the text:
It has furthermore been observed that CRL 40,293 is a well-tolerated substance.

Data set [8] deals with cardio-vascular parameters. Put plainly: Cardio-vascular activity in anaesthetised dogs. The format is in vivo. The following applies: intraduodenal 100 then 200 mg/kg. As to the method: Three anaesthetised dogs are used for this study. The product is administered intraduodenally as a gum suspension.
Two dogs with the thorax closed and respiring spontaneously are given CRL 40,293 at a dose of 100 mg/kg followed by 200 mg/kg, this second dose being administered 1 hour 30 minutes to 2 hours after the first.
One dog with the thorax opened is given 100 mg/kg, followed after 1 hour by 200 mg/kg, of CRL 40,293.
In these animals the effects of injections of noradrenalin, acetylcholine, tyramine, DMPP, histamine and serotonine were unchanged and the same is true of the effects of occlusion of the carotids and of stimulation of the central end and peripheral end of the vagus.

A further data set is described as follows: Clinical tests in man. The format is in vivo. The following applies: man; gelatine-coated pills of 400 mg, 2 pills twice daily. As to the method: The clinical tests have made it possible to confirm the pharmacological tests. Thus, in man, CRL 40,293 (Example 23) in the form of gelatine-coated pills containing 400 mg of active ingredient administered at the rate of 2 such pills twice daily has given good results in the treatment of circulatory complaints and especially of lipid disturbances.
CRL 40,386 (Example 8) has been used in man for the treatment of hyperlipidaemia in the form of gelatine-coated pills each containing 300 mg of active ingredient at the rate of 2 to 6 such pills per day.

Setting [9] is: read-out: reduction in the cholesterol.
Setting [10] is: read-out: reduction in the lipids.

Consider `CC(COC(=O)C(C)Oc1ccc(Sc2ccc(Cl)cc2)cc1)SCCCCCCCCCCSC(C)COC(=O)C(C)Oc1ccc(Sc2ccc(Cl)cc2)cc1` (racemic) [CRL 40,391, (±)-2,15-Dimethyl-3,14-dithia-1,16-hexadecyl di-(±)-{2-[p-(p-chlorophenylthio)-phenoxy]-propionate}], for which, in data set [1], the “latency time (collagen test)” value was “+40” and the “speed (collagen test)” value is -32. Besides, in data set [2], the inhibition at 100 mg/kg was determined as 19%. Further, the inhibition in vivo at 50 mg/kg in data set [3] (72 h, oral 50 mg/kg, 3 days, read-out: reduction in the cholesterol) was 42%. Moreover, the inhibition in vivo at 50 mg/kg in data set [3] (72 h, oral 50 mg/kg, 3 days, read-out: reduction in the lipids) came to 29%. For the same molecule, in [4] (setting [9]), the inhibition in vivo at 10 mg/kg was 32% and the inhibition in vivo at 20 mg/kg is 43%. In addition, in [4] (setting [10]), the inhibition in vivo at 10 mg/kg was found to be 17% and the inhibition in vivo at 20 mg/kg turned out to be 21%.
Take `OCCOc1ccc(Oc2ccc(Cl)cc2)cc1` [CRL 40,293, 2-[4-(4-Chlorophenoxy)-phenoxy]ethanol]: the figures for the Anti-aggregation action entry in data set [5] (100 mg/kg per day for 3 days) and in data set [5] (oral 50 mg/kg for 3 days) were “+++” and “++”, respectively. The change in vivo at 50 mg/kg in data set [6] (read-out: Cholesterol (change)) and in [6] (read-out: Total lipids (change)) was -40% each time. In addition, the “hypo-lipidaemic and hypocholesterolaemic activity (in words)” value in [6] (oral 50 mg/kg) was “good hypo-lipidaemic and hypocholesterolaemic activity”. The molecule further gave an LD50 in “in vivo” of 2050 mg/kg. Moreover, in data set [7], the LD-0 result was “greater than 600 mg/kg”. Moreover, the “ulceration or inflammation of the stomach and of the duodenum” value in the data set on stomach and duodenum (fasting rats, 1 g/kg through a probang, 8 hours after administration) is “no ulceration or inflammation of the stomach and of the duodenum is observed”. In the data set on stomach and duodenum (rat, in vivo), the “tolerance (in words)” value was “well-tolerated”. Besides, in data set [8] (closed thorax, 2 hours' observation), the “change of parameters: arterial pressure, pulse rate, left intra-ventricular pressure, dp/dt, vertebral and femoral arterial flow rates, respiration” value was “None of the parameters measured changed”. Besides, in [8] (dogs), the “effects of noradrenalin, acetylcholine, tyramine, DMPP, histamine and serotonine injections, carotid occlusion and vagus stimulation” value is given as “unchanged”. Moreover, in data set [8] (opened thorax, 2 hours' observation), the “change of parameters: arterial pressure, pulse rate, left intraventricular pressure, dp/dt, aorta flow rate, work of left ventricle, coronary arterial flow rate” value was “None of the parameters measured changed”. Also, in the data set “Clinical tests in man”, the “treatment of circulatory complaints and especially of lipid disturbances” value is “good results”. The molecule also showed a decrease in cholesterol in data set [4] (daily oral 10 mg/kg, 3-4 days) of 20%. In data set [4] (daily oral 10 mg/kg, 3-4 days), the “decrease in total lipids” value was determined as 20%.
Turning to `O=C(CSc1ccc(Sc2ccc(Cl)cc2)cc1)OCCSCCCCCCCCCCSCCOC(=O)CSc1ccc(Sc2ccc(Cl)cc2)cc1` [CRL 40,394, 3,14-Dithia-1,16-hexadecyl di-[p-(p-chlorophenylthio)-phenylthio-acetate]], the inhibition in vivo at 50 mg/kg in data set [3] (po, 120 h, 50 mg/kg, 5 days, read-out: reduction in the cholesterol) came to 16%; in [3] (po, 120 h, 50 mg/kg, 5 days, read-out: reduction in the lipids), 33%.
